# From ChEMBL document CHEMBL1201862, “PubChem BioAssay data set” (2004)
# Several values for one entry are separate records, joined by “and”; a condition that tells them apart may be missing. Equal entries are not always repeated. Activity calls are given as the source filed them.
# Assays:
# [1] = biological target: T1, Heat shock factor protein 1 (Mus musculus, UniProt P38532); assay: decrease of HSF1-responsive luciferase luminescence – cell-based, NIH3T3, dose retest, confirmation (AID 2382); assay type: functional;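 further: NIH3T3 fibroblasts with HSF1-driven luciferase reporter stressed by proteasome inhibitor MG132; luminescence from HSF1-driven luciferase expression after 8 hours of MG132 stress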
# T1 sequence (P38532 whole entry): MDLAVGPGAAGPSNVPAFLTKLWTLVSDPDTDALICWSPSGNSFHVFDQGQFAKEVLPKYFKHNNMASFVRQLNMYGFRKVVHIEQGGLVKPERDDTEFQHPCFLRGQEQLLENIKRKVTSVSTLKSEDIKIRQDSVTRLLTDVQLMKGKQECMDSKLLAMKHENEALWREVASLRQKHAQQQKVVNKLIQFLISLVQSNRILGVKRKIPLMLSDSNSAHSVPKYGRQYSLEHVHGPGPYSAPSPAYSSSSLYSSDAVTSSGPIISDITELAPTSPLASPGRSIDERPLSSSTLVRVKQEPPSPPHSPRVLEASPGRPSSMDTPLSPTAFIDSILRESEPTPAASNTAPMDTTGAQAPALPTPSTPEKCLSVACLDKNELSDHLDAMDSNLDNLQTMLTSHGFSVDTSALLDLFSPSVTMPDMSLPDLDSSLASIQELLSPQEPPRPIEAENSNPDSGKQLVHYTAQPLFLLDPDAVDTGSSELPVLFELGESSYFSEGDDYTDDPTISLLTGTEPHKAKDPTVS
# Protein skinhead-1 = biological target: T2, Protein skinhead-1 (Caenorhabditis elegans, UniProt P34707); assay type: functional
# T2 sequence (P34707 whole entry): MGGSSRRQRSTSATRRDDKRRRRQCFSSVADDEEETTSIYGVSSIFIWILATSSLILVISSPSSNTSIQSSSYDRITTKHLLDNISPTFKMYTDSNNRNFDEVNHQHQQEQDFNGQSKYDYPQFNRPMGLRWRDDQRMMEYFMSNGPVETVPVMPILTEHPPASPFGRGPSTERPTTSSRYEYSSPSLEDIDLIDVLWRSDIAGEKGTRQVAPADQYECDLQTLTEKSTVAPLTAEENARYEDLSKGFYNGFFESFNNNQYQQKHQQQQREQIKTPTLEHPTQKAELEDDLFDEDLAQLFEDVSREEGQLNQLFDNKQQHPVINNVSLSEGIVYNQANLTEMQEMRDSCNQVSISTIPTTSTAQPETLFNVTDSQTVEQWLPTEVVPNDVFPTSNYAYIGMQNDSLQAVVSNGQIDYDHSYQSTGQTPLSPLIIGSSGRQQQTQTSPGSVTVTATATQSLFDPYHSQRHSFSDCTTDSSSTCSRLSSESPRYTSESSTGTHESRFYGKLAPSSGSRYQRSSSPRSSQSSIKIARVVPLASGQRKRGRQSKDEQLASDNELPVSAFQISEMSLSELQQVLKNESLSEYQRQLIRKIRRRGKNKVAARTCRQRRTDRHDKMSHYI
# [2] = biological target: FAD-linked sulfhydryl oxidase ALR (Homo sapiens, UniProt P55789); assay: ALR-catalysed DTT oxidation blockers – biochemical, H2O2 detection, luminescence, cherry-pick, dose response (AID 493248)
# Sequence of FAD-linked sulfhydryl oxidase ALR (P55789 whole entry): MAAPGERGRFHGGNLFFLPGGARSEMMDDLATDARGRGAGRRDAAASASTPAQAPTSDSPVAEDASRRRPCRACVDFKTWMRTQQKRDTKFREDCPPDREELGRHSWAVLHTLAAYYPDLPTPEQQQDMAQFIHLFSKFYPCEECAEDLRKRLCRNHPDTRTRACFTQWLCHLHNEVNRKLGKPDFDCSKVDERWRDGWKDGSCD
# Cytochrome P450 2D6 = Cytochrome P450 2D6 (Homo sapiens, UniProt P10635);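 further: CYP2D6 member of a cytochrome P450 panel assay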
# Sequence of Cytochrome P450 2D6 (P10635 whole entry): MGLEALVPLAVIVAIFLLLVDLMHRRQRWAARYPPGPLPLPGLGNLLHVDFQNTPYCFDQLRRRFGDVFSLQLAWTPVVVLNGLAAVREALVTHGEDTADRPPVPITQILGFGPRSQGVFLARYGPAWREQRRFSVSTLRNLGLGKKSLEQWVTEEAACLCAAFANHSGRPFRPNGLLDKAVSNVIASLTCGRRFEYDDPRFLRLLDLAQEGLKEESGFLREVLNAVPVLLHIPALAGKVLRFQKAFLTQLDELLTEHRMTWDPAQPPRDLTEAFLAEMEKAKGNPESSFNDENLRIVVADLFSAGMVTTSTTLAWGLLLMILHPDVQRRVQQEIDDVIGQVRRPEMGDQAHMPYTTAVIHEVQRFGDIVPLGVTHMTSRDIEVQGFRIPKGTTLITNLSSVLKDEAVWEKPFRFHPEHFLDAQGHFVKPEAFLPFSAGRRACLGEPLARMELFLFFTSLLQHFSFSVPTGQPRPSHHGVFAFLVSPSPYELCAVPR
# Cytochrome P450 1A2 = biological target: T3, Cytochrome P450 1A2 (Homo sapiens, UniProt P05177);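 further: PubChem cytochrome P450 panel assay, CYP1A2 panel member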
# T3 sequence (P05177 whole entry): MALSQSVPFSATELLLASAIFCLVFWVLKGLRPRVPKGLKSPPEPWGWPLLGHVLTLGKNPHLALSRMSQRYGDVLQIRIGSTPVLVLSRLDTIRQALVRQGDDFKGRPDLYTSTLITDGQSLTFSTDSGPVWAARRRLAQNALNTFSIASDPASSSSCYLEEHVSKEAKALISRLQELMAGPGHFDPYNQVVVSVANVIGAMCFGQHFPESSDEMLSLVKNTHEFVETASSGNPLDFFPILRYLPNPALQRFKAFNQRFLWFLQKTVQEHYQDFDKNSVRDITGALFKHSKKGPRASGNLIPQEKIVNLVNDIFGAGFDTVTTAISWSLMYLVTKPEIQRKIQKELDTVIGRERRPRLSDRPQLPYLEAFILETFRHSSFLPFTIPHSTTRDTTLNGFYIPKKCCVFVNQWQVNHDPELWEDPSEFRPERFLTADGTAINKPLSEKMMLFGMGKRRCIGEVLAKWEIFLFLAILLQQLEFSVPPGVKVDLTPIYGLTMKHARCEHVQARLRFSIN
# Cytochrome P450 2C9 = Cytochrome P450 2C9 (Homo sapiens, UniProt P11712)
# Sequence of Cytochrome P450 2C9 (P11712 whole entry): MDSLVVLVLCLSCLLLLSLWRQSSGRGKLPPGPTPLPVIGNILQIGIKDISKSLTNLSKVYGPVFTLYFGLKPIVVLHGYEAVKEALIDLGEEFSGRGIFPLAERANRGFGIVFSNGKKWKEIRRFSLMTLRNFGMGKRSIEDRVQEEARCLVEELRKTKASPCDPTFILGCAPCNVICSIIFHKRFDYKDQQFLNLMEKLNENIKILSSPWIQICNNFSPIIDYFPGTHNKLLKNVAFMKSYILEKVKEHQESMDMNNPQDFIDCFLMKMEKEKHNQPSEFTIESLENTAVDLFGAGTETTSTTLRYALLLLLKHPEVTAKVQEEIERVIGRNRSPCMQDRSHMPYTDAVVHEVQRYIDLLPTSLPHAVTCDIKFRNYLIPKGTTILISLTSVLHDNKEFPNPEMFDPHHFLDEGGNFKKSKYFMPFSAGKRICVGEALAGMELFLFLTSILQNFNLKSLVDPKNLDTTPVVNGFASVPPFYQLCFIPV
# [3] = NIH3T3 cell viability loss – ATP luminescence, mouse fibroblasts, counter-screen, dose response (AID 2010); assay type: functional, cell-based;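 further: cells exposed to compound for about 90 hours before reading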
# [4] = biological target: T4, Short transient receptor potential channel 4 (Mus musculus, UniProt Q9QUQ5); assay: block of DAMGO-driven TRPC4 calcium entry – cell-based, HEK293 TRPC4/mu-opioid, Fluo-4 calcium, dose response (AID 434942); assay type: functional;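 further: potency of inhibitors blocking the TRPC4 calcium response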
# T4 sequence (Q9QUQ5 whole entry): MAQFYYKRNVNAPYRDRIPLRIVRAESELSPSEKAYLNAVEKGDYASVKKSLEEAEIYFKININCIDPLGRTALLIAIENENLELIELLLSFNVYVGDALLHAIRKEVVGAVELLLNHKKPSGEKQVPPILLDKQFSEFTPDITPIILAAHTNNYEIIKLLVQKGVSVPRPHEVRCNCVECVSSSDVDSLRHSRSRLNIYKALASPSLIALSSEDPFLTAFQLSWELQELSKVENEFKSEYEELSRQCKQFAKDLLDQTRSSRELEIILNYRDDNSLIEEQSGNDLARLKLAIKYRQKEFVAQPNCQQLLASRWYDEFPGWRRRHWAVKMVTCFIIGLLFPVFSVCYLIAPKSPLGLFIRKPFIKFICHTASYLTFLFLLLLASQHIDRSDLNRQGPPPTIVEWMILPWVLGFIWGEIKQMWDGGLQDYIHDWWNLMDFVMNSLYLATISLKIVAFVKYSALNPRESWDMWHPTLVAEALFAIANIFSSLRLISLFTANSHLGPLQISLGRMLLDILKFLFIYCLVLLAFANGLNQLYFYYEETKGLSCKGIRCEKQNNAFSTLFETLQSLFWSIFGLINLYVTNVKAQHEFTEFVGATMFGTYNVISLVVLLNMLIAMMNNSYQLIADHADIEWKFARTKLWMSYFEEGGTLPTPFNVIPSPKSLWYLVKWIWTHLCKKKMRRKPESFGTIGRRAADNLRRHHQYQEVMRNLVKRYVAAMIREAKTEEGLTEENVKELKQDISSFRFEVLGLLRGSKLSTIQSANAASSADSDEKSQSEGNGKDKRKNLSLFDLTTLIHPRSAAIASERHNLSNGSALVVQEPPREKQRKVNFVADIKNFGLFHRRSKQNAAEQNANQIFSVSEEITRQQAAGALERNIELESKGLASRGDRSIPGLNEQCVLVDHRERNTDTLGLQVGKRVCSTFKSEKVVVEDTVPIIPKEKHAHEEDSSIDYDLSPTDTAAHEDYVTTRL
# [5] = Trypanosoma cruzi growth suppression in host cells – NIH3T3 host cells, beta-gal luminescence, confirmation (AID 2044); assay type: functional, cell-based;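 further: intracellular parasites grown in NIH/3T3 mouse fibroblasts as host cells; luminescent beta-galactosidase reporter signal from transgenic T. cruzi replicating inside host cells; inhibitors lower the luminescence signal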
# H4 = assay: Luminescence Cell-Based Dose Response HTS to Identify Activators of 5'UTR Stem-Loop Driven Prion Protein mRNA Translation in H4 Neuroglioblastoma Cells. [Related pubchem assays: 1829 (Project Summary), 1814 (Primary HTS)]; assay type: functional; details: Homo sapiens
# [6] = Luminescence Cell-Based Dose Response HTS to Identify Activators of Luciferase Translation or Activity in H4 […] Cells. [Related pubchem assays: 1829 (Project Summary), 1814 (Primary HTS)]; assay type: functional
# Cytochrome P450 2C19 = Cytochrome P450 2C19 (Homo sapiens, UniProt P33261); assay: Cytochrome panel assay with activity outcomes. Panel member name: p450-cyp2c19 Compounds with AC50 equal or less than 10 uM are considered active; assay type: functional; details: read-out: AC50
# Sequence of Cytochrome P450 2C19 (P33261 whole entry): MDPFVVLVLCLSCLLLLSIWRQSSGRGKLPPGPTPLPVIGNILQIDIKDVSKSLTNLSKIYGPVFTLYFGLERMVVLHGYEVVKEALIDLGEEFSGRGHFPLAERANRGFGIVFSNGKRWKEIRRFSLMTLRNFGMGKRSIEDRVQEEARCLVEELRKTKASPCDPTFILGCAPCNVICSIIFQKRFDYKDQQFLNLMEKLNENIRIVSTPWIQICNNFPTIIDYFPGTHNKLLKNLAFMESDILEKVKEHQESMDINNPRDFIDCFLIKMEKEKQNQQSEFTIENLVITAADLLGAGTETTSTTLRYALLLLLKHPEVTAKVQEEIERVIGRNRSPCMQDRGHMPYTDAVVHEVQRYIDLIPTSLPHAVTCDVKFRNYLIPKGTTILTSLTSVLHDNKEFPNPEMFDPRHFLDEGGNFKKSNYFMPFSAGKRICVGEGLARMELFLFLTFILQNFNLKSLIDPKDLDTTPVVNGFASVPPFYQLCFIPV
# Cytochrome P450 3A4 = Cytochrome P450 3A4 (Homo sapiens, UniProt P08684);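 further: CYP3A4 tested as one member of a cytochrome P450 panel screen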
# Sequence of Cytochrome P450 3A4 (P08684 whole entry): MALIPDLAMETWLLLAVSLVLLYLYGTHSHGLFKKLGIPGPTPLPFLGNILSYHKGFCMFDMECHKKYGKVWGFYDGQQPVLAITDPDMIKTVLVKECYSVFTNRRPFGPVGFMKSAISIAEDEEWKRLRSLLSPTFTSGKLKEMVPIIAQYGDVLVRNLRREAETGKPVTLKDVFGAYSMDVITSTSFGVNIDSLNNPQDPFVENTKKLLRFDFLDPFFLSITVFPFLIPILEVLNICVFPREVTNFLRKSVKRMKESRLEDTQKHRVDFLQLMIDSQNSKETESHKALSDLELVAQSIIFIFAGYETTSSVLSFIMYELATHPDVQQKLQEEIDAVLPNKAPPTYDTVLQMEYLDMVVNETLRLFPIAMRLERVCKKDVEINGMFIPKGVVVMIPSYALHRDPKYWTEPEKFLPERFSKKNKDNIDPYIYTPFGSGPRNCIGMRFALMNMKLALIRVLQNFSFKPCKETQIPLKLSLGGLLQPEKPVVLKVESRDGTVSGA
# [7] = viability of uninfected HEp-2 cells – cell-based, HTS, cytotoxicity control for RSV inhibitor project, dose response (AID 2410); assay type: functional; details: human respiratory syncytial virus
# [8] = biological target: T1, Heat shock factor protein 1; assay: enhancement of HSF1-driven luciferase signal – cell-based, NIH3T3, luminescence, dose retest, confirmation (AID 435004); assay type: functional;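 further: stress induced by proteasome inhibitor MG132 added 30 min after compound; luciferase reporter driven by HSF1 response element in NIH3T3 cells; actives raise luminescence as potentiators of the MG132 stress response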
smiles,measurement,setting,value
COc1cccc(NC(=O)N2CCCC2C(=O)NC(C)C)c1 (centres undefined),EC50,[1],152 µM (active)
Fc1ccccc1N=C(S)NN(Cc1ccccc1)c1ccccc1,IC50,Protein skinhead-1,> 100 µM (inactive)
CSc1nccn1CC(=O)Nc1ccc(F)cc1,AC50,[2],2.88 µM (active)
O=S(=O)(O)c1ccc(N2N=C(c3ccccc3)CC2c2ccccc2)cc1 (centres undefined),AC50,[2],10.9 µM (active)
CN1CC[C@]2(C)c3cc(O)ccc3N(C)[C@@H]12,AC50,Cytochrome P450 2D6,31.6 µM (inconclusive) and 12.6 µM (inconclusive)
same,AC50,Cytochrome P450 1A2,15.8 µM (inconclusive) and 31.6 µM (inconclusive)
same,AC50,Cytochrome P450 2C9,12.6 µM (inconclusive)
Cc1ccc(S(=O)(=O)Nc2nc(C)c(NC(=O)Nc3ccc(Cl)cc3Cl)s2)cc1,AC50,Cytochrome P450 2D6,28.2 µM (inconclusive)
COCCn1c(SCc2ccc(OC)c(F)c2)nc2ccccc2c1=O,EC50,[3],31.8 µM (active)
same,EC50,[4],2.99 µM (active)
same,EC50,[5],2.24 µM (active)
CCN(CC)c1ccc(NS(=O)(=O)c2cn(C)c(=O)n(C)c2=O)c(C)c1,AC50,[2],0.789 µM (active)
CCOC(=O)C1=C(CSc2nc(-c3ccccc3)ccc2C#N)OC(N)=C(C#N)C1c1ccccc1 (centres undefined),IC50,Protein skinhead-1,> 100 µM (inactive)
O=C(c1ccncc1)N1CCC2(CC1)CN(Cc1cc(C(F)(F)F)cc(C(F)(F)F)c1)C2,AC50,Cytochrome P450 2D6,31.6 µM (inconclusive)
COc1ccc2c(c1)OC/C(=C/c1cccs1)C2=O,IC50,Protein skinhead-1,28.7 µM (active)
CC(NS(=O)(=O)c1ccc(OCC(=O)N2CCOCC2)c(Cl)c1)c1ccccc1 (centres undefined),IC50,Protein skinhead-1,> 100 µM (inactive)
O=C(c1ccccc1-c1nc(-c2ccc(Cl)cc2)no1)N1CCCC1,EC50,H4,99.2 µM (active)
same,EC50,[6],8.33 µM (active)
CNC(=O)NC(=S)NC(=O)c1ccccc1Cl,EC50,[1],> 195 µM (not active)
CCC1CCc2c(c3ccccc3[nH]c2=O)O1 (centres undefined),AC50,Cytochrome P450 2D6,39.8 µM (inconclusive)
same,AC50,Cytochrome P450 2C19,17.8 µM (inconclusive)
CCOc1ccc(N2C(=O)c3cccnc3C2=O)cc1,AC50,Cytochrome P450 2D6,0.178 µM (inconclusive)
same,AC50,Cytochrome P450 2C9,7.94 µM (inconclusive)
COC(=O)c1cc(S(=O)(=O)NCCc2ccccc2)c[nH]1,EC50,[1],> 195 µM (not active)
CN(C)c1nccc(N(Cc2ccccc2)Cc2ccccc2)c1C#N,AC50,Cytochrome P450 2D6,10 µM (inconclusive)
O=c1cc(N2CCCCC2)c(-c2ccccc2)nn1Cc1ccccc1Cl,AC50,Cytochrome P450 2D6,28.2 µM (inconclusive)
O=c1c2ccccc2nc(-c2ccc(Br)cc2)n1Cc1ccccc1,AC50,Cytochrome P450 2D6,25.1 µM (inconclusive)
Fc1ccc(Cn2nnc(-c3ccc(CN4CCOCC4)cc3)n2)cc1,IC50,Protein skinhead-1,6.09 µM (active)
O=C(CC(c1ccccc1)c1ccccc1)NCC1CCCO1 (centres undefined),AC50,Cytochrome P450 2D6,11.2 µM (inconclusive)
same,AC50,Cytochrome P450 3A4,22.4 µM (inconclusive)
COc1ccc(O)c(-c2c(C)n[nH]c2-c2ccc(Cl)cc2)c1,EC50,[1],> 195 µM (not active)
CCCN1C2CCCC1CC(NC(=O)c1ccc(F)cc1)C2 (centres undefined),IC50,Protein skinhead-1,> 100 µM (inactive)
O=C(c1cccs1)N1CCN=C1SCc1cccnc1,AC50,[2],1.27 µM (active)
COc1ccc(NC(=O)C2Cc3ccccc3C(=O)O2)cc1 (centres undefined),EC50,[1],> 195 µM (not active)
COc1ccc2[nH]cc(CCNc3cc(-c4ccccc4C(F)(F)F)ncn3)c2c1,AC50,Cytochrome P450 2D6,20 µM (inconclusive)
same,AC50,Cytochrome P450 2C9,1 µM (inconclusive)
COc1ccc(-n2c(=O)c(-c3cc(F)cc(F)c3)nc3cnc(N4CCOCC4)nc32)cc1,AC50,Cytochrome P450 2D6,20 µM (inconclusive)
same,AC50,Cytochrome P450 1A2,15.8 µM (inconclusive)
same,AC50,Cytochrome P450 3A4,15.8 µM (inconclusive)
CC(=O)Nc1ccc(-c2nnc(SCC(=O)c3ccc4c(c3)Cc3ccccc3-4)n2C)cc1,AC50,Cytochrome P450 2D6,14.1 µM (inconclusive)
same,AC50,Cytochrome P450 2C19,6.31 µM (inconclusive)
CC[n+]1c(/C=C/c2cc([N+](=O)[O-])ccc2O)ccc2ccccc21,CC50,[7],36.9 µM (active)
same,EC50,[1],> 195 µM (not active)
CCC(C)(C)NC(=O)C(c1cccn1C)N(C(=O)Cn1nnc2ccccc21)c1ccc(OC)cc1OC (centres undefined),IC50,Protein skinhead-1,> 100 µM (inactive)
Cc1ccc(F)cc1N=C(S)NCCc1ccccc1,EC50,[1],> 195 µM (not active)
CN(C)CCN1C(=O)C2C(C(=O)Nc3cc(Cl)cc(Cl)c3)C3C=CC2(O3)C1C(=O)NC1CCCCC1 (centres undefined),EC50,[8],> 260 µM (inactive)
same,EC50,[4],6.68 µM (active)
Cc1ccc(S(=O)(=O)N(C)CC(=O)Nc2ccccc2N2CCCC2)cc1,AC50,[2],2.39 µM (active)
O=C(Nc1ccc2c(c1)CN(C(=O)Nc1ccc(F)cc1)CC2)c1ccccn1,IC50,Protein skinhead-1,> 100 µM (inactive)
O=C(CNC(=O)c1cccnc1)N/N=C/c1cc(Br)c(O)c(Br)c1,EC50,[1],> 195 µM (not active)
S=C(N/N=C1\CCc2ccccc21)NC1CCCCC1,EC50,[1],87.7 µM (active)
CN(/C(=N\S(=O)(=O)c1ccccc1)C(F)(F)F)c1ccccc1,EC50,[1],> 195 µM (not active)
O=C(Nc1ccccc1)c1c[nH]cn1,IC50,Protein skinhead-1,> 100 µM (inactive)
O=C1CCC(=O)N1c1ccc(CSc2nc3ccccc3[nH]2)cc1,AC50,[2],1.22 µM (active)
